US5037578A, “O,O'-bridged oligophenylene laser dyes and dyestuff lasers and method of lasing therewith” (Exciton Chemical Company, priority 1990, dated 1991)
Values after ≈ are worked out from the molar mass of the structure shown. Values joined by “and” are separate entries in the source; they are usually repeats but may differ in a detail not shown here. Equal entries are not always repeated. One block for each molecule: values may come before it.

Key:
[1] = Solubilities of o,o'-bridged oligophenylenes in laser solvents at 21° C.; format: physicochemical; details: for Solubility: 21° C.; for Solubility compared with 2,2'-bifluorene: in solvents (Table I)
Text: It is further discovered that when substituent X of the bridged biphenyl moiety is a carbon atom which is free of benzylic hydrogens, the laser dye is relatively less reactive and relatively more soluble. In other words, it has been realized that the absence of benzylic hydrogens from the bridged carbon substituent, that is, the carbon substituent that is bonded directly to the phenyl moieties to form the bridge, renders the organic laser dyes of the present invention less reactive and more soluble. In view of the present disadvantages concerning the solubility of organic laser dyes available hitherto, this is quite significant.

[2] = Fluorescence emission spectrum and Fluorescence Quantum Efficiency; format: physicochemical; details: for Fluorescence emission intensity, first peak / Fluorescence emission intensity, second peak / Fluorescence emission peak, first / Fluorescence emission peak, second: slits 2 nm
Text: The fluorescence emission spectrum for the dye 9,9-dipropylfluorene as illustrated in FIG. 1 was detected on a Perkin-Elmer MPF-44A, the slits were set at 2 nm and the excitation light was at 265 nm. The Fluorescence Quantum Efficiency (FQE) was about the same as that of fluorene - 55%; and the fluorescence emission peaks at 306 nm(intensity 86) and […](intensity 67) were also similar to those of fluorene [the fluorescence emission spectrum for fluorene as illustrated in FIG. 5 was also detected on a Perkin-Elmer MPF-44A, the slits were set at 2 nm and the excitation light was at 265 nm and the fluorescence emission peaks for fluorene are at 303 nm(intensity 93) and 311 nm(intensity 73)].
This dye had two fluorescence peaks of almost equal intensity at 360 nm(intensity 33) and 378 nm(intensity 28) as illustrated in FIG. 2. […] The fluorescence emission spectrum of the dye 9,9,9',9'-tetrapropyl-2,2'-bifluorene was detected on a Perkin-Elmer MPF-44A, the slits were set at 2 nm and the excitation light was at 331 nm.
This dye had fluorescence peaks at 324 nm(intensity 90) and 338 nm(intensity 76) and a reported fluorescence quantum yield of 100% in cyclohexane as illustrated in FIG. 3. […] The fluorescence emission spectrum for the dye 3-phenyldibenzofuran as illustrated in FIG. 3 was detected on a Perkin-Elmer MPF-44A, the slits were set at 2 nm and the excitation light was at 301 nm.
The dye, 3,3'-bi(dibenzofuran), was prepared in accordance with the process disclosed in H.O. Wirth, G. Waese and W. Kern: Synthese Und Eigenschaften Von: Oxydo-p-oligophenylenen. Makromol. Chem. 86: 139(1965) which is incorporated herein in its entirety by reference, and was purified by extraction from Brockmann Activity I alumina with chloroform in an Ace-Kauffman column to give a white solid, mp 249.5°-250.5° C. (lit.mp 252.5° C.). This dye had two fluorescence peaks of almost equal intensity at 353 nm(intensity 47) and 369 nm(intensity 30) in cyclohexane as illustrated in FIG. 4.

[3] = cyclohexane; reported; cited from earlier work

Compound: c1ccc2c(c1)oc1cc(-c3ccc4c(c3)oc3ccccc34)ccc12 [3,3'-bi(dibenzofuran)]
Solubility ([1]; 95% ethanol): 1.0 × 10^-2 M and 2.5 g/l
Solubility ([1]; 100% ethanol): 6.3 × 10^-5 M and 0.021 g/l
Solubility ([1]; DMF): 2.5 × 10^-3 M and 0.84 g/l
Solubility ([1]; Methanol): 2.1 × 10^-5 M and 0.007 g/l
Solubility ([1]; Toluene): 2.4 × 10^-3 M and 0.8 g/l
Solubility ([1]; cyclohexane): 9.0 × 10^-5 M and 0.030 g/l
Solubility ([1]; dioxane): 1.3 × 10^-3 M and 0.43 g/l
Solubility compared with 2,2'-bifluorene [1]: greater than that of 2,2'-bifluorene
Fluorescence emission spectrum compared with dye of Example 2 [2]: almost superimposable on that of the dye discussed in Example 2
Fluorescence emission intensity, first peak ([2]; excitation 323 nm, cyclohexane): 47
Fluorescence emission intensity, second peak ([2]; excitation 323 nm, cyclohexane): 30
Fluorescence emission peak, first ([2]; excitation 323 nm, cyclohexane): 353 nm
Fluorescence emission peak, second ([2]; excitation 323 nm, cyclohexane): 369 nm

Compound: CCn1c2ccccc2c2ccc(-c3ccc4c5ccccc5n(CC)c4c3)cc21 [9,9'-diethyl-2,2'-bicarbazole]
Violet fluorescence compared with compounds of Examples 2 and 4 ([2]; in alcohols): brighter violet fluorescence in alcohols than the compounds of Examples 2 and 4

Compound: c1ccc2c(c1)Cc1ccccc1-2 [fluorene, reference compound]
Fluorescence Quantum Efficiency (FQE) [2]: 55%
Fluorescence emission intensity, first peak ([2]; excitation 265 nm): 93
Fluorescence emission intensity, second peak ([2]; excitation 265 nm): 73
Fluorescence emission peak, first ([2]; excitation 265 nm): 303 nm
Fluorescence emission peak, second ([2]; excitation 265 nm): 311 nm

Compound: c1ccc(-c2ccc(-c3ccc(-c4ccccc4)cc3)cc2)cc1 [quaterphenyl, reference compound]
Solubility ([1]; Toluene): ~1.3 × 10^-3 M and ~0.4 g/l

Further lines, with some results ahead:

Solubility ([1]; 1,2-dichloroethane): 1.0 × 10^-3 M and 0.33 g/l
Solubility ([1]; 95% ethanol): 0.4 g/L (≈ 1210 µM)
Solubility ([1]; 100% ethanol): 2.3 × 10^-5 M and 0.0077 g/l
Solubility ([1]; Toluene): 1.3 × 10^-3 M and 0.4 g/l
Solubility ([1]; cyclohexane): 3.0 × 10^-5 M and 0.01 g/l
Compound: c1ccc2c(c1)Cc1cc(-c3ccc4c(c3)Cc3ccccc3-4)ccc1-2 [2,2'-bifluorene]

Solubility ([1]; 50% ethanol): 8.4 × 10^-3 M and 2.0 g/l
Solubility ([1]; 95% ethanol): 1.1 × 10^-2 M and 2.7 g/l
Solubility ([1]; 100% ethanol): 1.6 × 10^-2 M and 3.9 g/l
Solubility ([1]; Methanol): 1.2 × 10^-2 M and 2.9 g/l
Solubility ([1]; cyclohexane): > 2.44 g/l and > 1.0 × 10^-2 M
Solubility compared with p-terphenyl ([1]; in all cases (See Table I)): much greater than that of p-terphenyl
Solubility compared with p-terphenyl ([1]; methanol, 50% ethanol, 95% ethanol and absolute ethanol): much more soluble
Fluorescence emission intensity, first peak ([2]; excitation 301 nm, cyclohexane): 90
Fluorescence emission intensity, second peak ([2]; excitation 301 nm, cyclohexane): 76
Fluorescence emission peak, first ([2]; excitation 301 nm, cyclohexane): 324 nm
Fluorescence emission peak, second ([2]; excitation 301 nm, cyclohexane): 338 nm
FQE in methanol compared with cyclohexane ([2]; methanol): the same in methanol as in cyclohexane
Compound: c1ccc(-c2ccc3c(c2)oc2ccccc23)cc1 [3-phenyldibenzofuran]
Fluorescence quantum yield [3]: 100%

Solubility ([1]; 100% ethanol): 7.8 × 10^-4 M and 0.39 g/l
Solubility ([1]; Methanol): 3.4 × 10^-4 M and 0.17 g/l
Solubility ([1]; cyclohexane): 2.0 × 10^-2 M and 10 g/l
Solubility ([1]; dioxane): 6.5 × 10^-3 M and 3.2 g/l
Solubility compared with 2,2'-bifluorene [1]: more soluble than 2,2'-bifluorene
Fluorescence emission intensity, first peak ([2]; excitation 331 nm): 33
Fluorescence emission intensity, second peak ([2]; excitation 331 nm): 28
Fluorescence emission peak, first ([2]; excitation 331 nm): 360 nm
Fluorescence emission peak, second ([2]; excitation 331 nm): 378 nm
Compound: CCCC1(CCC)c2ccccc2-c2ccc(-c3ccc4c(c3)C(CCC)(CCC)c3ccccc3-4)cc21 [9,9,9',9'-tetrapropyl-2,2'-bifluorene]

Fluorescence Quantum Efficiency (FQE) [2]: ~55%
Fluorescence emission intensity, first peak ([2]; excitation 265 nm): 86
Fluorescence emission intensity, second peak ([2]; excitation 265 nm): 67
Fluorescence emission peak, first ([2]; excitation 265 nm): 306 nm
Compound: CCCC1(CCC)c2ccccc2-c2ccccc21 [9,9-dipropylfluorene]
